# Measurements published in US20250025495A1, “Diagnosis and Treatment of Metabolic Syndrome with Magnesium Compositions” (priority 2023, published 2025).
# Tests used:
# [1] = burn patients, intravenous; cited from earlier work
# [2] = gut dysbiosis induced with lectin-containing raw red kidney beans (RRKB); assay type: in vivo; conditions: by inducing heat shock factor 70
# [3] = tested on: sulfate reducing bacteria (SRB); assay: SRB growth and hydrogen sulfide production with MgO; assay type: cell-based
# Method: Total counts were obtained and represented as cells per ml. To account for the heavy right skew of the response variable, the analysis was conducted using a shifted log-transformation of the data and 90% confidence intervals were constructed using Cox's method. […] 90% confidence intervals were constructed using a parametric Bootstrap procedure based on a zero-inflated log-normal model where the parameters were estimated using maximum likelihood. The relationship between MgO dose level and the response (SRB Growth and H2S Concentration) was assessed with an F test based on a simple linear model. Data is presented as Mean±SEM. In this second in-vitro experiment, bacteria was grown with varying doses of MgO (0.5-2.0 mg/ml) in liquid media at 37° for 24 hours (n=3). Total counts were obtained and represented as cells per ml (FIG. 2A). To account for the heavy right skew of the response variable, the analysis was conducted using a shifted log-transformation of the data and 90% confidence intervals were constructed using Cox's method. Hydrogen sulfide production of SRB grown for 24 hours with varying concentrations of MgO as represented as parts per billion (ppb) (FIG. 2B). […] The relationship between MgO dose level and the response (SRB Growth and H2S Concentration) was assessed with an F test based on a simple linear model Data is presented as Mean±SEM.
compound,measurement,setting,value
NC(=O)CC[C@H](N)C(=O)O [glutamine],endotoxemia and increased intestinal permeability,[1],reversed
same,reversal of leaky gut and microbial translocation to the liver,[2],able to reverse these effects
"[Mg] [magnesium (Mg), magnesium]",protection of the intestinal barrier by suppressing SRB and blocking production of hydrogen sulfide,[3],effective in protecting the intestinal barrier
[O]=[Mg] [magnesium oxide],"reversal of SRB effects (increased intestinal permeability, SRB proliferation, hydrogen sulfide production)",[3],could be reversed
